Each structure is given as a SMILES string. Structures can show the parent of a compound that is named as a salt.

One experiment concerns the target T1, human renin (Homo sapiens, UniProt P00797).
T1 construct: from tissue; host or cells: human plasma from blood of healthy volunteers
T1 sequence (P00797 67-406): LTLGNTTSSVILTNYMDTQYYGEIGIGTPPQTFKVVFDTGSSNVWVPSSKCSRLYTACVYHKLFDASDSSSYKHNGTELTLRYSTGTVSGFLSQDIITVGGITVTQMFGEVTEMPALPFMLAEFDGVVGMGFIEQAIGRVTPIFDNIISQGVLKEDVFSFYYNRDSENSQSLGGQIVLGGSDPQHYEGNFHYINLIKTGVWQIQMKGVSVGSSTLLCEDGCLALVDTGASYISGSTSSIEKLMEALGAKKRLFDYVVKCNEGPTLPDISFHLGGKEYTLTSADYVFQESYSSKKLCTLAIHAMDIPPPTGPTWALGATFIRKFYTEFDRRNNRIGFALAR
The experiment can be described thus: biochemical.
Conditions: not given
On the procedure: In vitro human renin inhibition
Renin inhibitory activity was estimated as the percentage change in renin activity in human plasma in the presence and absence of compound. The source of plasma was blood taken from healthy volunteers. Renin activity was defined by the difference in angiotensin I levels between two halves of a sample, one incubated at 37^o and the other at 4^o for 2 h. Angiotensin I levels were measured using a ¹²⁵I- angiotensin I radioimmunoassay kit (NEN/Dupont, Stevenage). Results were calculated as the mean of at least two, duplicate determinations and IC₅₀ values were calculated by linear regression analysis of at least three concentrations of compound.
For the compound `CC(C)CNC(=O)C[C@H](O)[C@H](CC1CCCCC1)NC(=O)[C@H](CC(C)C)NC(=O)[C@H](Cc1ccccc1)NC(=O)CC1COc2ccc[n+]([O-])c21` (stereo partly drawn) [Example E2, 2,3-Dihydro-4-oxofuro[3,2-]pyridine-3-acetyl-Phe-Leu-ACHPA isobutylamide], the IC50 was determined as 0.021 µM.

The experiment is the same for the next values; noted with them: renin activity in human plasma; angiotensin I difference between halves incubated at 37° and 4° for 2 h; linear regression of at least three concentrations; read-out: IC₅₀.
In the case of `CC(C)C[C@H](NC(=O)[C@H](Cc1ccccc1)NC(=O)CCN1C(=O)CSc2ncccc21)C(=O)N[C@@H](CC1CCCCC1)[C@@H](O)CC(=O)NCCCn1ccnc1` [Example E10, 2,3-Dihydro-3-oxo-4H-pyrido[2,3-b]-1,4-thiazine-4-propanoyl-Phe-Leu-ACHPA 3-(1-imidazolyl)propylamide .HCl], the IC50 was determined as 0.006 µM.

With `CC(C)C[C@H](NC(=O)[C@H](Cc1ccccc1)NC(=O)CCN1C(=O)CSc2ccncc21)C(=O)N[C@@H](CC1CCCCC1)[C@@H](O)CC(=O)NCCCn1ccnc1` [Example E4, 2,3-Dihydro-3-oxo-4H-pyrido[4,3-b]-1,4-thiazine-4-propanoyl-Phe-Leu-ACHPA 3-(1-imidazolyl)propylamide], the IC50 worked out at 0.004 µM.

For `CC(C)C[C@H](NC(=O)[C@H](Cc1ccccc1)NC(=O)CCN1C(=O)COc2cccnc21)C(=O)N[C@@H](CC1CCCCC1)[C@@H](O)CC(=O)NCCCn1ccnc1` [Example E3, 2,3-Dihydro-3-oxo-4H-pyrido[3,2-b]-1,4-oxazine-4-propanoyl-Phe-Leu-ACHPA 3-(1-imidazolyl)propylamide .0.5(CHCl₃)], the IC50 is 0.026 µM.

With `CC(C)C[C@H](NC(=O)[C@H](Cc1ccccc1)NC(=O)CCN1C(=O)CS(=O)(=O)c2ncccc21)C(=O)N[C@@H](CC1CCCCC1)[C@@H](O)CC(=O)NCCCn1ccnc1` [Example E11, 2,3-Dihydro-1,1,3-trioxo-4H-pyrido[2,3-b]-1,4-thiazine-4-propanoyl-Phe-Leu-ACHPA 3-(1-imidazolyl)propylamide .HCl.1.5H₂O], the IC50 is 0.012 µM.

Consider `CC(C)C[C@H](NC(=O)[C@H](Cc1ccccc1)NC(=O)CCCN1Cc2ccncc2C1=O)C(=O)N[C@@H](CC1CCCCC1)[C@@H](O)CC(=O)NCCCn1ccnc1` [Example E14, 6,7-Dihydro-5H-7-oxo-pyrrolo[3,4-c]pyridine-6-butanoyl-Phe-Leu-ACHPA 3-(1-imidazolyl)propylamide.2HCl], for which the IC50 came out at 0.014 µM.
